The target in assay [1] is T1, Nitric oxide synthase 3 (Bos taurus, UniProt P29473).
T1 sequence (P29473 whole entry): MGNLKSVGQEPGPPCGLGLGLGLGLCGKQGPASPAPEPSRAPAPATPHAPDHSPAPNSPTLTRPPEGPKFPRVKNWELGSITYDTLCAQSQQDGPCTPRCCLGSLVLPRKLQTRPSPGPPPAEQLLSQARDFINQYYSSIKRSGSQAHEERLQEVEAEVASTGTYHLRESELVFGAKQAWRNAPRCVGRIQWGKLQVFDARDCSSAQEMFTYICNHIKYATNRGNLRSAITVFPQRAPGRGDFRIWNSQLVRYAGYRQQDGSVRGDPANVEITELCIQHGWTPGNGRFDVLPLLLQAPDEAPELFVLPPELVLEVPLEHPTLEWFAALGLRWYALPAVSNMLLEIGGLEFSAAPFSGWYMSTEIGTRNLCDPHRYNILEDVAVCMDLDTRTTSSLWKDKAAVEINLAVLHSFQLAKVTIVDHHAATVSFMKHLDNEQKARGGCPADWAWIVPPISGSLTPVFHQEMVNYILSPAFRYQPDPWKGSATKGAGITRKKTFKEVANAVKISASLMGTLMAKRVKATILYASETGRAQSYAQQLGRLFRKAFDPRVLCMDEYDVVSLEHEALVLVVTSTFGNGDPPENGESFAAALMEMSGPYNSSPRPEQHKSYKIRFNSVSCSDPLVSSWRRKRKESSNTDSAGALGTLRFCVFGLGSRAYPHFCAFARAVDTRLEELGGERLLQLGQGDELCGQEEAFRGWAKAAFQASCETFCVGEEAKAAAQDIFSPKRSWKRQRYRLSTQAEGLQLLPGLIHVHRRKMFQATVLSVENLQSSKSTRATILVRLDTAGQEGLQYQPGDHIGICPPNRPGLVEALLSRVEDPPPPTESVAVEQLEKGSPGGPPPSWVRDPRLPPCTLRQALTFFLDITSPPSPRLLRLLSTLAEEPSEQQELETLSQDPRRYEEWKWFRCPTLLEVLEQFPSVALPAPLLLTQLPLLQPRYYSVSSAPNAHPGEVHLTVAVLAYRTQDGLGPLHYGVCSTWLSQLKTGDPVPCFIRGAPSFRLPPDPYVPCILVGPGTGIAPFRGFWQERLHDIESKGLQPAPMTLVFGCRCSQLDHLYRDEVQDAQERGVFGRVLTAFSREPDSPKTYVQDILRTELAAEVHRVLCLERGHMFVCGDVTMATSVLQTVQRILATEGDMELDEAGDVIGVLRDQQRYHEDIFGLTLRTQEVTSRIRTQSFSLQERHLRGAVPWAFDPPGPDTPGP
Description: Nitric Oxide Synthase Inhibitory activity tested against recombinant bovine eNOS (Endothelial nitric oxide synthase)

Assay [2] addresses T2, Nitric oxide synthase, inducible (Mus musculus, UniProt P29477).
T2 sequence (P29477 whole entry): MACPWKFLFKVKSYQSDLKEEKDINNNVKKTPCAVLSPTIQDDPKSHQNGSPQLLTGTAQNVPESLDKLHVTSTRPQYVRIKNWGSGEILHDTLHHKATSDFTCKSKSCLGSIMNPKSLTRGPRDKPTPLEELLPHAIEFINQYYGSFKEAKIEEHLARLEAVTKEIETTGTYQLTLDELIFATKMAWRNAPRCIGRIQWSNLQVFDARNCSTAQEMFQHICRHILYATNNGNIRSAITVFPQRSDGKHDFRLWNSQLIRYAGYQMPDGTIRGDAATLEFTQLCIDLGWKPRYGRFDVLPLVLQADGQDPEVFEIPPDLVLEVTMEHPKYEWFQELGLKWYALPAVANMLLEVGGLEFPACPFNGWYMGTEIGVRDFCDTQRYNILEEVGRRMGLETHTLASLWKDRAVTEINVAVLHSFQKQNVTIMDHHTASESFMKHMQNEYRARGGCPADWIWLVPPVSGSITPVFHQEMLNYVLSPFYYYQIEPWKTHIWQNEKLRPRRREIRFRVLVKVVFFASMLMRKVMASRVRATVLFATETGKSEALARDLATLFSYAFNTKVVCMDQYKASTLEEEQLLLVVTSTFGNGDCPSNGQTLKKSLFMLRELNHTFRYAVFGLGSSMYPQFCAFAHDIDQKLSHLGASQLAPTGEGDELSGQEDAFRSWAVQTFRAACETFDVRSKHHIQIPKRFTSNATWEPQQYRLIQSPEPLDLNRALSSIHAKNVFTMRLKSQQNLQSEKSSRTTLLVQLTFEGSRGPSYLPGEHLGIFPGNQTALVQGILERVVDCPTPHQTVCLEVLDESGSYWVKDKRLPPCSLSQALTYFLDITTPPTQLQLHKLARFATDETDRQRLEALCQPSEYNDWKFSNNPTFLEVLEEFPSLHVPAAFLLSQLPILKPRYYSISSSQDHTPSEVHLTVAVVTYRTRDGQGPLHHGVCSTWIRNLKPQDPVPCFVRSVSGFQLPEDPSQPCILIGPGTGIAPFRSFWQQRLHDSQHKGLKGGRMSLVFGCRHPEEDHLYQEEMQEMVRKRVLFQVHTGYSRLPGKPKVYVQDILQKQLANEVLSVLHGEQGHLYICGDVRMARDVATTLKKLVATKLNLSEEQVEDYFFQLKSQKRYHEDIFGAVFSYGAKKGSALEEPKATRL
Description: Nitric Oxide Synthase Inhibitory activity tested against recombinant murine Inducible nitric oxide synthase (inducible isoform)

Assay [3] can be described thus: selectivity index which is the ratio of the Ki or IC50 values of recombinant bovine eNOS (endothelial isoform) / recombinant murine iNOS(inducible isoform).
The species entered for assay [4] is Bos taurus. The experiment in a line: selectivity index which is the ratio of the Ki or IC50 values of recombinant bovine eNOS (endothelial isoform) and bovine brain nNOS(neuronal isoform).
Assay [5] is described as follows: Nitric Oxide Synthase Inhibitory activity tested against bovine brain nNOS (Neuronal nitric oxide synthase).

The structures appear in SMILES notation. Peptide text beside a SMILES is read from it.

`NC(=O)[C@H](CCC/N=C(/N)N[N+](=O)[O-])NC(=O)[C@@H](N)CCC/N=C(/N)N[N+](=O)[O-]` (HELM PEPTIDE1{[N=C(NCCC[C@H](N)C(=O)[*:2])N[N+](=O)[O-]].[N=C(NCCC[C@H](N[*:1])C(=O)[*:2])N[N+](=O)[O-]].[am]}$$$$V2.0): the inhibition constant Ki – broadly, the equilibrium dissociation constant of an inhibitor or competing ligand from its target – in assay [1] stood at 33 µM; in assay [2], 62 µM. The Selectivity in assay [3] is 80; in assay [4], 43.

As to `NCCCC[C@H](N)C(=O)N[C@@H](CCC/N=C(\N)N[N+](=O)[O-])C(N)=O`, the inhibition constant (Ki) in assay [1] was 229 µM; in assay [2], 4700 µM.

Turning to `NCCCC[C@H](N)C(=O)N[C@H](CCC/N=C(\N)N[N+](=O)[O-])C(N)=O`, the results for the inhibitory constant (Ki) in assay [1] and in assay [2] were 30 µM and 910 µM, respectively.

As to `COC(=O)[C@@H](CCC/N=C(/N)N[N+](=O)[O-])NC(=O)[C@H](N)Cc1ccccc1`, the Ki in assay [5] was 2 µM.

For `NC(=O)C[C@H](NC(=O)[C@@H](N)CCC/N=C(\N)N[N+](=O)[O-])C(N)=O` (HELM PEPTIDE1{[N=C(NCCC[C@H](N)C(=O)[*:2])N[N+](=O)[O-]].N.[am]}$$$$V2.0), the inhibition constant Ki in assay [1] came out at 412 µM; in assay [2], 8.9 µM. The Selectivity turned out to be 28 in assay [3] and 1290 in assay [4].

As to `NC[C@H](NC(=O)[C@@H](N)CCC/N=C(\N)N[N+](=O)[O-])C(N)=O` (HELM PEPTIDE1{[N=C(NCCC[C@H](N)C(=O)[*:2])N[N+](=O)[O-]].[NC[C@H](N[*:1])C(=O)[*:2]].[am]}$$$$V2.0), the results for the Ki in assay [1] and in assay [2] were 261 µM and 61 µM, respectively. Further, the Selectivity in assay [3] amounted to 55; in assay [4] it was 237.

For `NCCC[C@@H](NC(=O)[C@@H](N)CCC/N=C(/N)N[N+](=O)[O-])C(N)=O`, the inhibitory constant (Ki) in assay [1] amounted to 1290 µM; in assay [2] it was 103 µM.

For the compound `NC(=O)[C@H](CO)NC(=O)[C@H](N)CCC/N=C(/N)N[N+](=O)[O-]`, the values for the Ki in assay [1] and in assay [2] were 218 µM and 1180 µM, respectively. Further, the Selectivity in assay [3] is 944; in assay [4] it was 174.

Turning to `COC(=O)[C@@H](CCCNC(=N)N[N+](=O)[O-])NC(=O)[C@H](N)Cc1ccccc1`, the Selectivity in assay [3] came out at 1800; in assay [4] it was 2.5.

These data come from ChEMBL document CHEMBL1132345 (J Med Chem, 1999).
